Reference: patent US20040057908A1, “Oral compositions and use thereof” (priority 2003, published 2004)
Values after ≈ are worked out from the molar mass of the structure shown. Values joined by “and” are separate entries in the source; they are usually repeats but may differ in a detail not shown here. Equal entries are not always repeated. Where two headings read alike, the source gives them in different places. Marks after values point to notes of the source that are not given here.

What was measured:
streptococcal GTFs [1] = system: T1, streptococcal GTFs; assay: GTF activity in solution, all GTFs (B, C, D, Ss) stated together; assay type: biochemical, Streptococcus mutans, S. sanguinis; settings: for inhibitory effects on the activities of GTFs (in words): 1.33 mM (fluoride 250 ppm), solution and sHA surface
T1 construct: Streptococcus milleri KSB8, which harbors the gtfB gene from S. mutans GS-5 (for GTF B production)
Method: The GTF enzyme added to each sample for all assays was equivalent to the amount required to incorporate 1.0-1.5 μmol of glucose over the four hours reaction (1.0-1.5 units).
The samples were incubated 37° C. with rocking for 4 h.
For this assay, a one-way layout experimental design was used in 4×2×7 factorial scheme (enzyme×state×dose). An analysis of variance was carried out and qualitative treatments were compared using Tukey test at level of 5% of significance (p<0.05). A non-linear regression was applied in order to evaluate effects of different concentrations.

[2] = system: S. mutans UA159 and S. sobrinus 6715 biofilms; assay: Time-kill assay in 5-day-old biofilms; assay type: cell-based; settings: for antibacterial activity against mutans streptococci biofilms (in words): 1.33 mM (fluoride 250 ppm); for decrease in viable counts of biofilms: 1.33 mM, after 2-4 h incubation
Method: Cells of mutans streptococci were grown in tryptone-yeast extract broth with addition of 1% (w/v) sucrose at 37° C. and 5% CO2. […] The killing assays were performed according to Phan et al. (2000). […] The homogenized suspension was serially diluted (10^1 to 10^4) and plated on tryptic soy agar or blood agar by means of a spiral plater (Autoplate model 3000, Spiral Biotech, Inc., Bethesda, Md). […] Killing curves were constructed by plotting log10 CFU/ml versus time over 4 h. All the assays were carried out in quadruplicate on at least 3 different occasions. Bactericidal effect was defined as a ≧3 log10 decreases in the CFU/ml from initial viable counts, at time zero. The potential for drug carry-over to produce falsely low viability counts was minimized by dilution of inocula and plating of small volumes of diluted samples (50 μl).

[3] = system: Mutans Streptococci Strains; assay: MIC and MBC, broth dilution, all strains stated together; assay type: cell-based, S. mutans (GS-5 and UA159) and S. sobrinus 6715; settings: Streptococcus mutans; for MIC: read-out: MIC
Method: (§1) The minimum inhibitory concentration (MIC) and minimum bactericidal concentration (MBC) were determined for each test compound according to the National Committee for Clinical Laboratory Standards guidelines (Tentative standard M26-T, 1992; NCCLS Publication No. M7-A5, 2000) and Koo et al. (2000b). The broth microdilution and macrodilution methods (in TSB) were used for the antibacterial tests. The starting inoculum was 5×10^5 CFU/ml and the concentrations of test compounds ranged from 15.6 to 500 μM (two-fold dilutions). The MICs and MBCs were determined in quadruplicate in at least 3 different experiments.

dental caries = assay: Rat caries experiment: caries scores (Larson's modification of Keyes' system); assay type: in vivo, Sprague Dawley rats; settings: for smooth-surface caries severity scores versus control (in words): Ds and Dm levels, tt-farnesol Dm only; for smooth-surface caries severity scores versus control (in words) / reduction of the incidence of smooth surface caries compared to control / incidence and severity of sulcal-surface caries (in words): p<0.05; for smooth surface caries, Keyes's score / reduction of the incidence of smooth surface caries compared to control / incidence and severity of sulcal-surface caries (in words): rats; for smooth surface caries, Keyes's score / reduction of the incidence of smooth surface caries compared to control: topical twice daily, five weeks
Method: (§2) Seven litters of ten female Sprague Dawley rats aged 14 days were purchased with their dams from Charles River (Kingston, N.Y., USA). […] The experiment proceeded for five weeks, at which time the animals were killed by CO2 asphyxiation. The lower left jaw was aseptically dissected, suspended in 5.0 mL of sterile saline solution, and sonicated (three 10-second pulses with 5-second intervals at 30 watts, Branson Sonifier 450). The suspension was plated on mitis salivarius agar plus streptomycin to estimate S. sobrinus population and on blood agar to determine total cultivable flora (TCF). […] The determination of caries score was blind by codification of the jaws and was done by 1 calibrated examiner. […] The level of significance was 5%.

streptococcal GTFs [4] = system: T1, streptococcal GTFs; assay: GTF activity adsorbed onto sHA surface, all GTFs stated together; assay type: biochemical, Streptococcus mutans, S. sanguinis; settings: 1.33 mM
Method: Glucosyltransferase activity was measured by the incorporation of [^14C-glucose] from labeled sucrose (NEN Research Products, Boston, Mass.) into glucans (Germaine et al., 1974; Venkitaraman et al., 1995). The GTF enzyme added to each sample for all assays was equivalent to the amount required to incorporate 1.0-1.5 μmol of glucose over the four hours reaction (1.0-1.5 units).
For surface assays, the GTFs were adsorbed to hydroxyapatite beads coated with clarified whole saliva (free of GTF activity), as detailed elsewhere (Koo et al., 2000c; Schilling and Bowen, 1988, Venkitaraman et al., 1995). The saliva-coated hydroxyapatite (sHA) beads were exposed to sufficient enzyme to saturate the surface as determined experimentally. Following the adsorption of the enzyme, the beads were washed 3 times with buffer to remove the loosely bound material and exposed to 300 μl of the two-fold dilution series of test compounds (or control) for 30 min. at the same concentrations described above. The beads were washed and exposed to 300 μl [^14C-glucose]-sucrose substrate (100.0 mmol/l sucrose, final concentration). The radiolabeled glucan formed was collected and quantified by scintillation counting (Germaine et al., 1974; Venkitaraman et al., 1995). All the solution and surface assays were done in quadruplicate in at least 3 different experiments. […]

[5] = system: Streptococcus sobrinus 6715; assay: Rat caries experiment: S. sobrinus recovered from the jaws; assay type: in vivo, Sprague Dawley rats; settings: rats, topical twice daily, five weeks; 1.33 mM (fluoride 250 ppm); means (SD)
Method: as §2

mutans streptococci = assay: Time-kill studies, broth macrodilution; assay type: cell-based, S. mutans GS-5 and UA159, S. sobrinus 6715
Method: For the compound with highest antibacterial activity, the time kill studies were performed by broth macrodilution method (National Committee for Clinical Laboratory Standards, Tentative standard M26-T, 1992). The starting inoculum of S. mutans GS-5 and UA159, and S. sobrinus 6715 was 1-5×10^6 CFU/ml. The final concentration of the antibacterial agent was 4 times MIC (or MBC values). Tubes containing the microorganisms and the test compound in TSB were incubated in 5% CO2 at 37° C.; samples were removed for viable counts at 0, 30 min., 1, 2, 4, 8, and 24 h. Serial dilutions (10^−1 to 10^−4) were prepared in sterile 0.9% sodium chloride solution. The diluted sample (50 μl) was plated on to tryptic soy agar by means of a spiral plater (Autoplate model 3000, Spiral Biotech, Inc., Bethesda, Md.). The plates were incubated in 5% CO2 at 37° C. for 48 h, when the number of colonies was determined. Killing curves were constructed by plotting log10 CFU/ml versus time over 24 h. All the assays were done in quadruplicate on at least 3 occasions. Bactericidal effect was defined as a ≧3 log10 decreases in the CFU/ml from the original inoculum. The potential for drug carry-over to produce falsely low viability counts was minimized by dilution of inocula and plating of small volumes of diluted samples (50 μl). In addition, no evidence of drug carry-over was detected at the lowest dilution used for plating (10^−1).

[6] = system: Streptococcus mutans UA 159; assay: MIC and MBC, broth dilution; assay type: cell-based
Method: as §1

[7] = system: Streptococcus sobrinus 6715; assay: MIC and MBC, broth dilution; assay type: cell-based
Method: as §1

[8] = system: Streptococcus mutans GS-5; assay: MIC and MBC, broth dilution; assay type: cell-based
Method: as §1

streptococci = assay: Membrane disruption seen in the phase-contrast microscope; assay type: cell-based
S. mutans strains = assay: MIC and MBC, broth dilution, S. mutans strains stated together; assay type: cell-based, S. mutans (GS-5 and UA159)
Method: as §1

biofilms = assay: Formation of biofilms (continued research); assay type: cell-based

For [H]/N=C(\N/C(=N/[H])NCCCCCCNC(=N)NC(=N)Nc1ccc(Cl)cc1)Nc1ccc(Cl)cc1 [Chlorhexidine, chlorhexidine, reference compound], the “inhibition of GTFs in solution” value (streptococcal GTFs [1]; 1.33 mM) was 30-45%, the “inhibitory effects on the activities of GTFs (in words)” value (shortened to “inhibitory effects on the activities”) (streptococcal GTFs [1]) was “either negligible or moderate inhibitory effects” and the “antibacterial activity against mutans streptococci biofilms (in words)” value (“antibacterial activity” below) [2] was “not bactericidal”. The “decrease in viable counts of biofilms” value [2] was 2-3 log10 CFU/ml, the MIC ([3]; all strains tested (S. mutans GS-5, UA159, S. sobrinus 6715)) was 1.1 to 2.2 µM and the MIC ([3]; all strains tested) was 1 to 2 µg/mL. The MBC ([3]; mutans streptococci strains) was 8.9 µM and 8 µg/mL, the “smooth-surface caries severity scores versus control (in words)” value (dental caries) was “significantly lower” and the “smooth surface caries, Keyes's score” value (dental caries) was 2.0±1.9. For the same compound, the “reduction of the incidence of smooth surface caries compared to control” value (dental caries) was 75%, the “incidence and severity of sulcal-surface caries (in words)” value (dental caries) was “reduced” and the “inhibition of GTFs on a surface” value (streptococcal GTFs [4]) was 10-20%. The “Infection by S. sobrinus, %” value [5] was 34.1 (10.8)^b % and the “incubation time to bactericidal effects” value (mutans streptococci; 8.9 μM (MBC), mutans streptococci strains) was 8 h.
For CC(C)=CCC/C(C)=C/CC/C(C)=C/CO [tt-Farnesol], the “inhibitory effects on the activities” value (streptococcal GTFs [1]) was “either negligible or moderate inhibitory effects”, the “effects on enzyme activity (GTFs)” value (streptococcal GTFs [1]; 1.33 mM, solution or surface not specified) was 10-20% and the “decrease in viable counts of biofilms” value [2] was 1 log10 CFU/ml. The “smooth-surface caries severity scores versus control (in words)” value (dental caries) was “significantly lower”, the MBC [6] was 500 µM (≈ 111 µg/mL) and the MIC [6] was 125 µM (≈ 27.8 µg/mL). It also gave an MBC ([7]; S. sobrinus 6715) of 56 µg/mL, an MIC ([7]; S. sobrinus 6715) of 14 µg/mL and an MBC ([7]; Streptococcus sobrinus 6715) of 250 µM. It also gave an MIC ([7]; Streptococcus sobrinus 6715) of 62.5 µM, an MBC [8] of 500 µM (≈ 111 µg/mL) and an MIC [8] of 125 µM (≈ 27.8 µg/mL). For the same compound, the “concentration giving visible membrane disruption of streptococci” value (streptococci) was over 10 mM, the “Infection by S. sobrinus, %” value [5] was 44.8 (8.2)^a % and the MBC (S. mutans strains) was 500 μM and 112 μg/ml. The MIC (S. mutans strains) was 125 μM and 28 μg/ml, the “formation of biofilms (in words)” value (biofilms) was “inhibits formation of biofilms” and the “incubation time to bactericidal effects (≧3 log decrease in CFU/ml)” value (mutans streptococci; four times the MIC (or MBC), S. sobrinus 6715 and S. mutans strains) was 4-8 h. For the same compound, the “reduction of viable counts” value (mutans streptococci; four times the MIC (or MBC), within 30 min. to 1 h of incubation) was 1 log of CFU/ml.
In the case of [F-].[Na+] [Fluoride, sodium fluoride], the “inhibitory effects on the activities” value (streptococcal GTFs [1]) is reported as “devoid of detectable antimicrobial and anti-GTF activity”, the “inhibitory effects on the activities” value (streptococcal GTFs [1]; listed as fluoride) is reported as “either negligible or moderate inhibitory effects” and the “antibacterial activity” value [2] is reported as “devoid of detectable antimicrobial and anti-GTF activity”. For the same compound, the “antibacterial activity” value ([2]; listed as fluoride) was “negligible antibacterial activity”, the “smooth-surface caries severity scores versus control (in words)” value (dental caries) was “significantly lower” and the “smooth surface caries, Keyes's score” value (dental caries) was 2.3±3.0. For the same compound, the “reduction of the incidence of smooth surface caries compared to control” value (dental caries) was 72%, the “incidence and severity of sulcal-surface caries (in words)” value (dental caries) was “reduced” and the “Infection by S. sobrinus, %” value [5] was 39.8 (13.2)^ab %.
